Holding throughout (assay): Holoreceptor transactivation assay
Holding throughout (format): cell-based

For one assay, the target named is T1, RARβ (Homo sapiens, UniProt P10826).
T1 sequence (P10826 1-448 isoform P10826-2): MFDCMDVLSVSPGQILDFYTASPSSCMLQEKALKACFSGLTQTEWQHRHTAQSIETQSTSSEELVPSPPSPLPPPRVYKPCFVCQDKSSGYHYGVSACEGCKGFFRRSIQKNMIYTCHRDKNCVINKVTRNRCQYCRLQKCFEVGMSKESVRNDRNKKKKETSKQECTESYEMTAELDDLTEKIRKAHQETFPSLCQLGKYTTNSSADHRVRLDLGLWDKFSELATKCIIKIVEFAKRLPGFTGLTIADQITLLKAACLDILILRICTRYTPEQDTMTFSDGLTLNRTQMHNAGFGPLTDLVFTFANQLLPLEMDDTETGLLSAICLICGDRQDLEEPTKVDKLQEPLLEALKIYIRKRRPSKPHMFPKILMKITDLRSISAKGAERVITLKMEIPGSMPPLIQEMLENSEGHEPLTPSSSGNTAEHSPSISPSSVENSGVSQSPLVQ
Details: expressed in transfected cells; host or cells: CV1 cells. As to conditions: relative to all trans retinoic acid; read-out: Transactivation Assay Efficacy (% of RA activity) RARβ. From the text: (§1) A holoreceptor transactivation assay and a ligand binding assay which measure the antagonist/agonist like activity of the compounds of the invention, or their ability to bind to the several retinoid receptor subtypes, respectively, are described in published PCT Application No. WO93/11755 (particularly on pages 30-33 and 37-41) published on Jun. 24, 1993, the specification of which is also incorporated herein by reference. A description of the holoreceptor transactivation assay is also provided below.
(§2) CV1 cells (5,000 cells/well) were transfected with an RAR reporter plasmid MTV-TREp-LUC (50 ng) along with one of the RAR expression vectors (10 ng) in an automated 96-well format by the calcium phosphate procedure of Heyman et al. Cell 68: 397-406. For RXR-α and RXR-γ transactivation assays, an RXR-responsive reporter plasmid CRBPII-tk-LUC (50 ng) along with the appropriate RXR expression vectors (10 ng) was used substantially as described by Heyman et al. above, and Allegretto et al. J. Biol. Chem. 268: 26625-26633. For RXR-β transactivation assays, an RXR-responsive reporter plasmid CPRE-tk-LUC ([…]) along with RXR-β expression vector ([…]) was used as described in above. These reporters contain DRI elements from human CRBPII and certain DRI elements from promotor, respectively (see Mangelsdorf et al. The Retinoids: Biology Chemistry and Medicine, pp. 319-349, Raven Press Ltd., New York and Heyman et al., cited above). A β-galactosidase (50 ng) expression vector was used as an internal control in the transfections to normalize for variations in transfection efficiency. The cells were transfected in triplicate for 6 hours, followed by incubation with retinoids for 36 hours, and the extracts were assayed for luciferase and […] activities. The detailed experimental procedure for holoreceptor transactivations has been described in Heyman et al. above, and Allegretto et al. cited above. The results obtained in this assay are expressed in EC50 numbers, as they are also in the chimeric receptor transactivation assay. The Heyman et al. Cell 68: 397-406, Allegretto et al. J. Biol. Chem. 268: 26625-26633, and Mangelsdorf et al. The Retinoids: Biology, Chemistry, and Medicine, pp. 319-349, Raven Press Ltd., New York, are expressly incorporated herein by reference. The results of ligand binding assay are expressed in Kd numbers. (See Cheng et al. Biochemical Pharmacology 22: 3099-3108, expressly incorporated herein by reference.)
A compound should not cause significant activation of a reporter gene through a given receptor subtype (RAR-α, RAR-β or RAR-γ) in the holoreceptor transactivation assay, in order to qualify as an RAR antagonist with utility in the present invention.

Another assay relates to RXRβ. As to conditions: relative to all trans retinoic acid.
From the text: as §1, §2

Another assay addresses T2, RXRγ (Mus musculus, UniProt P28705).
T2 construct: expressed in transfected cells; host or cells: CV1 cells
T2 sequence (P28705 1-463): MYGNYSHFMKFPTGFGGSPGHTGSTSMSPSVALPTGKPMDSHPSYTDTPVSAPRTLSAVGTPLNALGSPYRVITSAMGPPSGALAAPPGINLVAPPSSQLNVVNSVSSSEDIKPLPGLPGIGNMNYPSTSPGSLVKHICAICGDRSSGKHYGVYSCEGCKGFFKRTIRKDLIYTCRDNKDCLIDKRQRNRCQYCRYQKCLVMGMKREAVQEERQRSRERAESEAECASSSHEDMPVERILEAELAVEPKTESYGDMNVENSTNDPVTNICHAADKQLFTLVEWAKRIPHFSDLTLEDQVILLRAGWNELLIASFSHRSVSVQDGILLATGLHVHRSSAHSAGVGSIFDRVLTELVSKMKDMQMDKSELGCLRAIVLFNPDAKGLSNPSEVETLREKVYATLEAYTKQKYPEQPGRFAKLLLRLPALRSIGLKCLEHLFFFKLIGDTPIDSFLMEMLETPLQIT
As to conditions: relative to all trans retinoic acid; read-out: Transactivation Assay Efficacy (% of RA activity) RXRγ.
From the text: as §1, §2

A further assay deals with T3, RXRα (Homo sapiens, UniProt P19793).
T3 construct: expressed in transfected cells; host or cells: CV1 cells
T3 sequence (P19793 1-462): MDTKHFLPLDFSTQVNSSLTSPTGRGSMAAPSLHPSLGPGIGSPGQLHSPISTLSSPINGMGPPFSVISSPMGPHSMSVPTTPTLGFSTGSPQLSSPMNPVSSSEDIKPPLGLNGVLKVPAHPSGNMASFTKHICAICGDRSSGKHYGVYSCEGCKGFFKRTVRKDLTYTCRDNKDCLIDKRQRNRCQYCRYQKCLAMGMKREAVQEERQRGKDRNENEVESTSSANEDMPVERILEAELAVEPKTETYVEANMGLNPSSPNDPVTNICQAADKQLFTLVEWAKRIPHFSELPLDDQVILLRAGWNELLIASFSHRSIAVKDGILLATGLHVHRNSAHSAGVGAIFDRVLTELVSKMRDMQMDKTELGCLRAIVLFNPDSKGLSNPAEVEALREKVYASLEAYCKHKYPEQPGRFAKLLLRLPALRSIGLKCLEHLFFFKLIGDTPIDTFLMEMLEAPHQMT
As to conditions: relative to all trans retinoic acid; read-out: Transactivation Assay Efficacy (% of RA activity) RXRα.
From the text: as §1, §2

Consider `CC(C)(C)c1ccc(C2=CCC(C)(C)c3ccc(C#Cc4ccc(C(=O)O)cc4)cc32)cc1` [Compound 61, 4-[(5,6-Dihydro-5,5-dimethyl-8-(4-(1,1-dimethylethyl)phenyl)-2-naphthalenyl)ethynyl]benzoic acid], for which the values for the Emax at RARβ, on RXRγ and at RXRα were 2%, 3% and 1%, respectively. Further, the “Transactivation Assay Efficacy (% of RA activity) RXRβ” value in the assay on RXRβ is 0.00 % of RA activity.

With `CC1(C)CC=C(c2ccccn2)c2cc(C#Cc3ccc(C(=O)O)cc3)ccc21` [Compound 19, 4-[(5,6-Dihydro-5,5-dimethyl-8-(2-pyridyl)-2-naphthalenyl)ethynyl]benzoic acid], the Emax was 5% at RARβ, 4% on RXRγ and 0% on RXRα. The “Transactivation Assay Efficacy (% of RA activity) RXRβ” value with RXRβ is 9.0 % of RA activity.

With `CC1(C)CC=C(c2ccc(O)cc2)c2cc(C#Cc3ccc(C(=O)O)cc3)ccc21` [Compound 29, 4-[(5,6-Dihydro-5,5-dimethyl-8-(4-hydroxyphenyl)-2-naphthalenyl)ethynyl]benzoic acid], the Emax on RARβ is 6%; on RXRγ, 2%; on RXRα, 0%. Further, in the assay with RXRβ, the “Transactivation Assay Efficacy (% of RA activity) RXRβ” value is given as 6.00 % of RA activity.

Take `Cc1ccccc1C1=CCC(C)(C)c2ccc(C#Cc3ccc(C(=O)O)cc3)cc21` [Compound 27, 4-[(5,6-Dihydro-5,5-dimethyl-8-(2-methylphenyl)-2-naphthalenyl)ethynyl]benzoic acid]: the Emax on RARβ was 14%; on RXRγ, 4%; at RXRα, 2%. In addition, the “Transactivation Assay Efficacy (% of RA activity) RXRβ” value in the assay on RXRβ is reported as 0.00 % of RA activity.

With `COc1ccc(C2=CCC(C)(C)c3ccc(C#Cc4ccc(C(=O)O)cc4)cc32)cc1` [Compound 22, 4-[(5,6-Dihydro-5,5-dimethyl-8-(4-methoxyphenyl)-2-naphthalenyl)ethynyl]benzoic acid], the Emax is 0% at RARβ, 2% at RXRγ and 1% at RXRα. Besides, in the assay on RXRβ, the “Transactivation Assay Efficacy (% of RA activity) RXRβ” value is given as 0.00 % of RA activity.

`Cc1ccc(C2=CCC(C)(C)c3ccc(C#Cc4ccc(C(=O)O)cc4)cc32)s1` [Compound 34, 4-[(5,6-Dihydro-5,5-dimethyl-8-(5-methyl-2-thienyl)-2-naphthalenyl)ethynyl]benzoic acid]: the figures for the Emax on RARβ, on RXRγ and on RXRα were 5%, 3% and 1%, respectively. Further, the “Transactivation Assay Efficacy (% of RA activity) RXRβ” value in the assay on RXRβ is on record as 0.00 % of RA activity.

In the case of `Cc1csc(C2=CCC(C)(C)c3ccc(C#Cc4ccc(C(=O)O)cc4)cc32)n1` [Compound 31, 4-[(5,6-Dihydro-5,5-dimethyl-8-(4-methylthiazol-2-yl)-2-naphthalenyl)ethynyl]benzoic acid], the values for the Emax on RARβ, on RXRγ and at RXRα were 14%, 6% and 1%, respectively. Moreover, in the assay with RXRβ, the “Transactivation Assay Efficacy (% of RA activity) RXRβ” value is 8.00 % of RA activity.

`CC1(C)CC=C(c2ccccc2)c2ccc(C(=O)C=Cc3ccc(C(=O)O)cc3)cc21` [Compound 103, 4-[3-oxo-3-(7,8-dihydro-5-phenyl-8,8-dimethyl-2-naphthalenyl)-1-propenyl]-benzoic acid]: the Emax on RARβ was found to be 12%; at RXRγ, 2%; on RXRα it was 0%. Further, the “Transactivation Assay Efficacy (% of RA activity) RXRβ” value in the assay with RXRβ is reported as 0.0 % of RA activity.

In the case of `Cc1ccc(C2=CCC(C)(C)c3ccc(C(=O)Oc4ccc(C(=O)O)cc4)cc32)cc1` [Compound 39, 4-[[(5,6-Dihydro-5,5-dimethyl-8-(4-methylphenyl)-2-naphthalenyl)carbonyl]oxy]-benzoic acid], the Emax stood at 7% at RARβ, 1% on RXRγ and 2% at RXRα. In the assay with RXRβ, the “Transactivation Assay Efficacy (% of RA activity) RXRβ” value is recorded as 0.00 % of RA activity.

Turning to `Cc1ccc(C2=CCC(C)(C)c3ccc(C(=S)Nc4ccc(C(=O)O)c(F)c4)cc32)cc1` [Compound 63, 2-fluoro-4-[[(5,6-dihydro-5,5-dimethyl-8-(4-methylphenyl)-2-naphthalenyl)thiocarbonyl]amino]-benzoic acid], the Emax was determined as 2% at RARβ, 1% on RXRγ and 1% on RXRα. In the assay with RXRβ, the “Transactivation Assay Efficacy (% of RA activity) RXRβ” value is listed as 0.00 % of RA activity.

Consider `Cc1nc(C2=CCC(C)(C)c3ccc(C#Cc4ccc(C(=O)O)cc4)cc32)sc1C` [Compound 32], for which the values for the Emax at RARβ, on RXRγ and at RXRα were 2%, 2% and 1%, respectively. Also, the “Transactivation Assay Efficacy (% of RA activity) RXRβ” value with RXRβ was 0.00 % of RA activity.

For the compound `CC1(C)CC=C(c2ccc(C(F)(F)F)cc2)c2cc(C#Cc3ccc(C(=O)O)cc3)ccc21` [Compound 23, 4-[(5,6-Dihydro-5,5-dimethyl-8-(4-trifluoromethylphenyl)-2-naphthalenyl)ethynyl]benzoic acid], the Emax amounted to 6% at RARβ, 4% on RXRγ and 1% at RXRα. In the assay on RXRβ, the “Transactivation Assay Efficacy (% of RA activity) RXRβ” value is listed as 0.00 % of RA activity.

Regarding `Cc1ccc(C2=CCC(C)(C)c3ccc(C(=O)Nc4ccc(C(=O)O)cc4)cc32)cc1` [Compound 36, 4-[[(5,6-Dihydro-5,5-dimethyl-8-(4-methylphenyl)-2-naphthalenyl)carbonyl]amino]-benzoic acid], the Emax at RARβ turned out to be 5%; at RXRγ, 2%; on RXRα it was 1%. Besides, the “Transactivation Assay Efficacy (% of RA activity) RXRβ” value in the assay on RXRβ is recorded as 7.00 % of RA activity.

For the origin of these results see US6469028B1, “Synthesis and use of retinoid compounds having negative hormone and/or anatgonist activities” (Allergan, Inc., priority 1995, dated 2002).
